Holding throughout (conditions): Compound Concentration 10.0 uM, Hit No
The target of test [1] is N-glycosylase/DNA lyase (Homo sapiens) (UniProt O15527).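 Further: OGG1 cleavage of a quenched duplex DNA oligonucleotide, coupled to APE1 for strand incision, read as fluorescence at 594 nm.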
Description: Inhibition of OGG1 by quantifying inhibition of OGG1-mediated cleavage and dissociation of quenched duplex DNA oligonucleotides, measured as fluorescence at 594 nm. To generate a functional strand incision and increase turn-over this assay is coupled to APE1.
For test [2], the target named is Endonuclease 8-like 1 (Homo sapiens) (UniProt Q96FI4).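 Further: fluorescence at 594 nm from quenched duplex DNA oligonucleotides released by NEIL1 cleavage and strand separation, reported as reduction of this enzyme activity.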
Chain of Endonuclease 8-like 1 (Homo sapiens) (Q96FI4 whole entry): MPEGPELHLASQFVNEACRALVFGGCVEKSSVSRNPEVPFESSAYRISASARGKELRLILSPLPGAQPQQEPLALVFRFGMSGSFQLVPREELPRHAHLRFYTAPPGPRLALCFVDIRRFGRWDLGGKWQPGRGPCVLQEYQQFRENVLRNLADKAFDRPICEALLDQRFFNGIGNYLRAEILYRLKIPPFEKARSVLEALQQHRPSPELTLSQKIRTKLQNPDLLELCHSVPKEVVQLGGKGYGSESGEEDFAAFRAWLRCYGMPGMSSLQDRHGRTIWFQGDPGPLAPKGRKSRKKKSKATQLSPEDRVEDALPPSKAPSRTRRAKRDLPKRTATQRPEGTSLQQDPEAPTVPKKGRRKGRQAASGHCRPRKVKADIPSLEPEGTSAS
Description: Inhibition of NEIL1 by quantifying inhibition of NEIL1-mediated cleavage and dissociation of quenched duplex DNA oligonucleotides, measured as fluorescence at 594 nm.
In test [3] the target is T1, Adenine DNA glycosylase (Homo sapiens) (UniProt Q9UIF7).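 Further: human MUTYH activity read as 594 nm fluorescence from cleavage and release of a quenched DNA duplex, coupled with APE1 for strand incision, lower signal meaning inhibition.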
T1 sequence (whole entry): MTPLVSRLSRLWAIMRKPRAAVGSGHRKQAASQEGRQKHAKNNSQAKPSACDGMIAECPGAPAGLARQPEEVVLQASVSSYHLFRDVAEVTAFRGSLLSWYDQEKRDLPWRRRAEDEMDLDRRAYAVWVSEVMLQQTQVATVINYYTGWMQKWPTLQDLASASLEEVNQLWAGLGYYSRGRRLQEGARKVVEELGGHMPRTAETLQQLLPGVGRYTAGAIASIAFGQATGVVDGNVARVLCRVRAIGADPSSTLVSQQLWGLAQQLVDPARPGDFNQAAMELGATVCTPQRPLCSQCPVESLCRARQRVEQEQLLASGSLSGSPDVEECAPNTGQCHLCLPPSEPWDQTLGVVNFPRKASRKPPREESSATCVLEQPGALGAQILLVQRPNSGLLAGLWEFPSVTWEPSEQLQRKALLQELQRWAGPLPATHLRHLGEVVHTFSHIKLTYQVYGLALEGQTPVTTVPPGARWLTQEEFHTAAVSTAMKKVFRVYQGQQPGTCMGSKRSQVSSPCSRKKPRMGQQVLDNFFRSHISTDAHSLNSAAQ
Description: Inhibition of MUTYH by quantifying inhibition of MUTYH-mediated cleavage and dissociation of quenched duplex DNA oligonucleotides, measured as fluorescence at 594 nm. To generate a functional strand incision and increase turn-over this assay is coupled to APE1.

Test [4] addresses G/T mismatch-specific thymine DNA glycosylase (Homo sapiens) (UniProt Q13569).
Description: Inhibition of TDG by quantifying inhibition of TDG-mediated cleavage and dissociation of quenched duplex DNA oligonucleotides, measured as fluorescence at 594 nm. To generate a functional strand incision and increase turn-over this assay is coupled to APE1.
Test [5] concerns the target T2, Single-strand selective monofunctional uracil DNA glycosylase (Homo sapiens) (UniProt Q53HV7).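 Further: enzymatic SMUG1 assay coupled with APE1, reading fluorescence at 594 nm released when a quenched double-stranded DNA oligonucleotide substrate is cleaved and separated.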
T2 sequence (whole entry): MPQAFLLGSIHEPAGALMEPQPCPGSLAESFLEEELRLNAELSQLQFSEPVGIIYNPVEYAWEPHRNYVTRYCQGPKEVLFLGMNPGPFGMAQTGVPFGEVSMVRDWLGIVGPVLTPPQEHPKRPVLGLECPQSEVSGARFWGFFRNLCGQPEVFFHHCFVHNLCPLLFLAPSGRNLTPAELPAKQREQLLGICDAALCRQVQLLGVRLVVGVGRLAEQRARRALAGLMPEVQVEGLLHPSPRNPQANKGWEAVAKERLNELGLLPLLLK
Description: Inhibition of SMUG1 by quantifying inhibition of SMUG1-mediated cleavage and dissociation of quenched duplex DNA oligonucleotides, measured as fluorescence at 594 nm. To generate a functional strand incision and increase turn-over this assay is coupled to APE1.

For test [6], the target named is Uracil-DNA glycosylase (Homo sapiens) (UniProt P13051).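 Further: UNG excision on a quenched double-stranded DNA oligo probe, with APE1 added for strand incision and turnover, read as fluorescence at 594 nm as strands separate.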
Chain of Uracil-DNA glycosylase (Homo sapiens) (P13051 whole entry): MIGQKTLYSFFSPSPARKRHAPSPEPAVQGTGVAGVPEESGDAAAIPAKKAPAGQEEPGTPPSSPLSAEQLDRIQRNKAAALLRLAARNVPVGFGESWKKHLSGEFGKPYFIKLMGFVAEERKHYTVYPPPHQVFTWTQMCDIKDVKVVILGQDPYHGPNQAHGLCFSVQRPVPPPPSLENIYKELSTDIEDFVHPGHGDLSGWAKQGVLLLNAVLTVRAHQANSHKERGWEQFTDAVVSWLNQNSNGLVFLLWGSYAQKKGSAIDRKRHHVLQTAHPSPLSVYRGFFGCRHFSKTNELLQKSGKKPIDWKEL
Description: Inhibition of UNG by quantifying inhibition of UNG-mediated cleavage and dissociation of quenched duplex DNA oligonucleotides, measured as fluorescence at 594 nm. To generate a functional strand incision and increase turn-over this assay is coupled to APE1.
For test [7], the target named is T3, Endonuclease 8-like 2 (Homo sapiens) (UniProt Q969S2).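 Further: fluorescence at 594 nm reports NEIL2 cutting and release of a quenched double-stranded DNA oligo substrate, reduced signal read as inhibition.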
T3 sequence (whole entry): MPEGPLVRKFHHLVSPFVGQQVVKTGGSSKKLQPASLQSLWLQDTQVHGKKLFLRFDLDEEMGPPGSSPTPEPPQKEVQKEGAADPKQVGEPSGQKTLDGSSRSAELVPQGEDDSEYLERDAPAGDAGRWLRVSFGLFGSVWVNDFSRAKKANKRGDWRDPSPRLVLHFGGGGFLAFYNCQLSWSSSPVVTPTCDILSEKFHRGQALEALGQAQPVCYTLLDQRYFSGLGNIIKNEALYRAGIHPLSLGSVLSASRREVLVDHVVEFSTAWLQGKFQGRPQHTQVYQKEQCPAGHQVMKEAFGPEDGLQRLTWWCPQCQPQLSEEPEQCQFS
Description: Inhibition of NEIL2 by quantifying inhibition of NEIL2-mediated cleavage and dissociation of quenched duplex DNA oligonucleotides, measured as fluorescence at 594 nm.

Test [8] has as its target DNA-3-methyladenine glycosylase (Homo sapiens) (UniProt P29372).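 Further: enzyme assay where MPG cuts a quenched duplex DNA oligonucleotide probe, paired with APE1 for strand incision and turnover, read as fluorescence at 594 nm.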
Description: Inhibition of MPG by quantifying inhibition of MPG-mediated cleavage and dissociation of quenched duplex DNA oligonucleotides, measured as fluorescence at 594 nm. To generate a functional strand incision and increase turn-over this assay is coupled to APE1.
For test [9], the target named is T4, Endonuclease III-like protein 1 (Homo sapiens) (UniProt P78549).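 Further: enzyme assay tracking NTHL1 cutting and release of a quenched double-stranded DNA oligo substrate, read as fluorescence at 594 nm.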
T4 sequence (whole entry): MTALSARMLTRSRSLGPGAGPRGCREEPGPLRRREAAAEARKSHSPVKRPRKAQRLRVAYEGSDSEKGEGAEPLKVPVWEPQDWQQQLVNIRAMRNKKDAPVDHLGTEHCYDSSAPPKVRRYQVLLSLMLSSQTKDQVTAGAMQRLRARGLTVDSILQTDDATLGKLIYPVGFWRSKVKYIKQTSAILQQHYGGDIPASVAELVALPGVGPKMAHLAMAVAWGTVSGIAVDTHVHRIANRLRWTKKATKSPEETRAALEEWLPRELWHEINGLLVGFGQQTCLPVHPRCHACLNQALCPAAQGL
Description: Inhibition of NTHL1 by quantifying inhibition of NTHL1-mediated cleavage and dissociation of quenched duplex DNA oligonucleotides, measured as fluorescence at 594 nm.

From ChEMBL document CHEMBL5665443, “Enzyme Inhibitor Single Concentration assay results for EUbOPEN Chemogenomics Library” (2024) come the findings set out here.

Chain of G/T mismatch-specific thymine DNA glycosylase (Homo sapiens) (Q13569 whole entry): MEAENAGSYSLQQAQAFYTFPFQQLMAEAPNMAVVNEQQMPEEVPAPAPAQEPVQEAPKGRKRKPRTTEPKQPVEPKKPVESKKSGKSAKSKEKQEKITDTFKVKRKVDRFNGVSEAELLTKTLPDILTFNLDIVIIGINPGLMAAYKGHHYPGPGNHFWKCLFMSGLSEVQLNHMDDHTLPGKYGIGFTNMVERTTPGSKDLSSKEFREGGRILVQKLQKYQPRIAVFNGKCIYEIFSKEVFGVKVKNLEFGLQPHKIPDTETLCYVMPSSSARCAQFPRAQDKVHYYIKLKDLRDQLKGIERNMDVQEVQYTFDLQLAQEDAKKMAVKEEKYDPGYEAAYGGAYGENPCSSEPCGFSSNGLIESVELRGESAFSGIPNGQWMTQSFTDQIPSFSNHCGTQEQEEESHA
Chain of DNA-3-methyladenine glycosylase (Homo sapiens) (P29372 whole entry): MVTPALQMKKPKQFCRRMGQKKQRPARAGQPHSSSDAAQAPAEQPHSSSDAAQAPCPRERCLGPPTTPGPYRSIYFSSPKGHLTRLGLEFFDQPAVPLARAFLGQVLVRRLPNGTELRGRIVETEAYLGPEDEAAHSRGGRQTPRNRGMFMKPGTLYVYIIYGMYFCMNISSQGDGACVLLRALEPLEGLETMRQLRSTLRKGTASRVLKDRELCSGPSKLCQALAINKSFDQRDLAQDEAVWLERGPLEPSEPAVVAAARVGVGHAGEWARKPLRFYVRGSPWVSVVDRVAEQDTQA
Chain of N-glycosylase/DNA lyase (Homo sapiens) (O15527 whole entry): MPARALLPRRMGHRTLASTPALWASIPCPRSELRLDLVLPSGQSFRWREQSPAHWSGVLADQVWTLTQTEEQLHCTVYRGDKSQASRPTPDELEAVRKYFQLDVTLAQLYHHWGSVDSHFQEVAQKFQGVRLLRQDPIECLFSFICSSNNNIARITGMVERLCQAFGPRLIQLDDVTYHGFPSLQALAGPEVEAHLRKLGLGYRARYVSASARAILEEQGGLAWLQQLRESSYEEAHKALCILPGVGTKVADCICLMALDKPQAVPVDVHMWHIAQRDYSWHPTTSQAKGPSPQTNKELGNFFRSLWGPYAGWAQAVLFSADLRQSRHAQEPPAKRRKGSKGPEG

With `C[C@@H](OC[C@@]1(c2ccccc2)CC[C@]2(CCC(=O)N2)CN1)c1cc(C(F)(F)F)cc(C(F)(F)F)c1`, the inhibition is -0.784% in test [1]; -1.98% in test [2]; 10.9% in test [3]; 9.1% in test [4]; -1.58% in [5]; -7.13% in test [6]. The figures for the inhibition in test [7], in test [8] and in [9] were 6.75%, -7.57% and -6.14%, respectively.

Consider H-RPPGFSPFR-OH, for which the inhibition was -0.678% in [1]; 4.01% in test [2]; 29% in test [3]; 26.9% in test [4]; 5.92% in test [5]; 2.31% in [6]. Besides, the results for the inhibition in test [7], in [8] and in test [9] were -1.37%, 15.2% and 1.39%, respectively.

With `CNc1nc(Nc2ccccc2)nc(OC(C(F)(F)F)C(F)(F)F)n1`, the inhibition was -3.77% in test [1]; 2.83% in test [2]; -4.15% in test [3]; 4.54% in test [4]; 2.08% in test [5]; 1.86% in test [6]. The inhibition in test [7] is 1.69%; in test [8] it was -9.6%; in [9] it was 19.6%.

For the compound `CN(C(=O)/C=C/c1ccoc1)[C@@H]1CC[C@@]2(O)[C@H]3Cc4ccc(O)c5c4[C@@]2(CCN3CC2CC2)[C@H]1O5`, the inhibition in test [1] was -1.76%; in test [2], 14.2%; in test [3], 8.72%; in test [4], 13.5%; in test [5] it was -7.79%; in test [6] it was -6.84%. Also, the inhibition in test [7] was found to be 1.76%; in [8], 5.81%; in [9], 1.92%.

For `CC[C@H](NC(=O)c1c(C)c(-c2ccccc2)nc2ccccc12)c1ccccc1`, the inhibition is -1.61% in test [1]; -0.204% in test [2]; 0.0213% in [3]; -2.42% in test [4]; -0.0333% in test [5]; -6.75% in test [6]. Also, the inhibition in test [7] is -1.98%; in test [8] it was 4.04%; in [9], 9.25%.

As for `CC(C)(C(=O)O)c1ccc(C(O)CCCN2CCC(C(O)(c3ccccc3)c3ccccc3)CC2)cc1` (stereo not given), the inhibition was -9.14% in test [1]; -7.32% in [2]; -0.107% in test [3]; 8.16% in test [4]; -3.57% in test [5]; -8.82% in test [6]. In addition, the values for the inhibition in test [7], in [8] and in test [9] were 8%, -4.6% and 2.66%, respectively.

Regarding `O=C(Nc1cccc(C(F)(F)F)c1)c1cc(Cl)ccc1O`, the inhibition in test [1] is -6.43%; in test [2], -4.58%; in [3], 0.595%; in test [4], 4.24%; in test [5], 0.608%; in [6] it was -2.86%. The figures for the inhibition in test [7], in test [8] and in test [9] were -5.45%, 23.5% and 5.52%, respectively.

Consider `O=C(Nc1cc(C(F)(F)F)cc(C(F)(F)F)c1)c1cc(Cl)ccc1O`, for which the inhibition in [1] is 28.6%; in [2], 1.2%; in test [3] it was -9.19%; in [5], 4.73%; in test [6], -1.16%; in [7] it was -3.41%. Moreover, the inhibition in test [8] came out at 9.82%; in [9] it was 6.35%.

Turning to `Cc1ccc(S(=O)(=O)Nc2ccc(-n3nc(C(F)(F)F)cc3C(F)(F)F)cc2)cc1`, the inhibition is 21.7% in test [1]; 3.57% in [2]; -4.85% in test [3]; 19.1% in test [5]; -1.93% in [6]; 5% in test [7]. For the same compound, the inhibition is 20% in test [8] and 16.2% in [9].

`C[C@@H](NCCc1ccc(O)cc1)[C@@H](O)c1ccc(O)cc1` (relative stereo): the inhibition in test [1] is -4.18%; in test [2] it was -5.25%; in test [3] it was 11.7%; in [4] it was 5%; in [7] it was 6.25%; in [8], -3.37%. Besides, in [9], the inhibition came to 17.3%.

As for `C/N=C(/NC#N)NCCSCc1csc(NC(=N)N)n1`, the inhibition was -8.12% in [1]; -6.13% in [2]; -6.76% in test [3]; 1.2% in [4]; -3.81% in [5]; -5.07% in test [8]. Moreover, in test [9], the inhibition was -9.8%.

`CC[S+]([O-])c1nc(-c2cccc(OCc3ccccc3)c2)cc(C(F)(F)F)n1` (stereo not given): the inhibition in test [1] was 6.41%; in [2], 5.43%; in [3], -4.2%; in test [4] it was 4.54%; in test [5] it was 4.67%; in test [6], -7.73%. Besides, the results for the inhibition in [7], in test [8] and in [9] were 10.8%, -6.11% and -3.94%, respectively.

On to `COC(c1ccccc1)(c1ccccc1)[C@H](Oc1nc(C)cc(C)n1)C(=O)O`, for which the inhibition in test [1] was 1.14%; in test [2], 9.14%; in [3], 23.3%; in test [4], 14.5%; in [5], -3.28%; in test [6], -5.94%. Further, the inhibition stood at 10.8% in test [7], 4.85% in test [8] and 6.32% in [9].

With `COc1ccc(C2(O)OC(=O)C(c3ccc4c(c3)OCO4)=C2Cc2cc(OC)c(OC)c(OC)c2)cc1` (stereo not given), the inhibition in [1] was -9.68%; in test [2], -4.95%; in test [3], 22.7%; in test [4], 8.23%; in test [6] it was -1.01%; in test [8], 13.2%. Further, in [9], the inhibition was found to be 15.1%.

As for `CCCCCCCC/C=C\CCCCCCCC(N)=O`, the inhibition was 4.44% in [1]; 12.4% in test [2]; 15.9% in test [3]; 12.1% in test [4]; -2.07% in [5]; -8.52% in [6]. Besides, the values for the inhibition in test [7], in test [8] and in [9] were 2.51%, 17.3% and 2.66%, respectively.

With `CN(C)CC[C@@H](c1ccc(Cl)cc1)c1ccccn1`, the inhibition in test [1] is -3.11%; in [2] it was -2.28%; in test [3], 11.5%; in test [4] it was 6.86%; in test [6], -8.86%; in test [7], 12%. In addition, the inhibition in test [8] amounted to 0.18%; in [9], 6.32%.

As to `CC(C)NCC(O)c1ccc(N)c(C#N)c1` (stereo not given), the inhibition was -2.67% in [1]; -4.21% in test [2]; 4.24% in test [3]; -4.14% in [4]; -9.04% in [5]; -8.72% in [7]. In addition, the inhibition came out at 0.373% in [8] and 12.9% in [9].

`O=C(O)C1CN(Cc2ccc(-c3nc4cc(Cc5ccccc5F)ccc4s3)c(F)c2)C1`: the inhibition was -3.25% in [1]; -0.945% in test [2]; -0.363% in test [3]; -3.37% in [4]; -3.48% in [7]; -8.77% in [8]. For the same compound, in test [9], the inhibition was 11.4%.
